Assay [1] concerns the target GluN1/GluN2B NMDARs. The conditions noted are these: cited from earlier work; for Ki or IC50: Sup. Fig. 2G, Ki or IC50 not specified.
Assay [2] has as its target T1, GluN1/GluN2B NMDA receptors (UniProt P35439+Q01097).
T1 construct: expressed in transfected cells; host or cells: Xenopus laevis oocytes (nuclear cDNA injection)
The experiment in a line: TEVC electrophysiology on Xenopus oocytes expressing wt GluN1/GluN2B NMDARs. As to conditions: theoretical dose-response curve of a pure cis population calculated from 365 and 350 nm PSS. The assay is classed as cell-based, rat GluN1, mouse GluN2B. The source says:
The activity of OptoNAM-3 was functionally monitored by electrophysiology on Xenopus oocytes (see Methods). To assess the light-dependent effect, we tested the activities of the dark PSS (mostly trans) and the UV PSS (mostly cis, see above) separately. For each concentration, we prepared a solution divided into two samples: one in which the compound was kept in the dark for the duration of the experiment (dark PSS state); and the other that was preilluminated with either 350 or 365 nm light (350 or 365 nm PSS) and then kept away from the light for the duration of the experiment in order to avoid photoisomerization of the compounds by ambient light (see Methods). […] We generated dose–response curves of OptoNAM-3 dark and UV PSS on wild-type (wt) GluN1/GluN2B NMDA receptors (Figure 3A) in the presence of saturating concentrations of agonists (100 μM glutamate and glycine).
We used cDNA coding for rat GluN1–1a (named GluN1 herein) (GenBank: U08261.1), rat GluN2A (GenBank: D13211.1), mouse GluN2B (GenBank: D10651.2), rat GluA1 flop (GenBank: M36418.2), and rat Myc-GluA2(Q)-flip (GenBank: AF164344.1) cloned into pcDNA3-based expression plasmids. GluK2 (GenBank: Z11548.1) corresponds to the fully RNA-edited version.[80] The GluN2B-ΔNTD construct is from ref[45] and GluN2B–N615K is from ref[81]. Single mutants GluN2B-Q110G and GluN1-L135H were from ref[19]. The GluA2 cDNA contains a Myc tag ([…]) fused between the signal peptide and the N-terminus sequences, and the GluA2 subunit is […] for its Q/R/N site (GluA2(Q)) to allow permeation of homomeric GluA2 receptors.[2] cDNAs coding for rat GluN2C (GenBank: M91563.1) and GluN2D subunits (GenBank: L31611.1) were in prK5 plasmids.
Oocytes from Xenopus laevis were used for heterologous expression of recombinant NMDA receptors studied using a two-electrode voltage clamp (TEVC). Female Xenopus laevis were housed and ovary bags harvested according to the European Union guidelines (husbandry authorizations #C75–05–31 and #D75–05–31; project authorizations #05137.02; and Apafis #28867–2020121814485893). Fragments of ovary bags were also purchased from the “Centre de Ressources Biologiques Xenopes” (now TEFOR, Paris Saclay, France) and from the European Xenopus Resource Center (EXRC, Portsmouth, UK). Xenopus laevis oocytes were harvested and prepared as previously described in ref[82].
Expression of recombinant NMDA receptors was obtained by oocyte nuclear coinjection of 37 nL of a mixture of cDNAs (at 30 ng/μL) coding for GluN1–1a and various GluN2 subunits (ratio 1:1). The protocol in ref[43] was followed for the expression of GluN1/GluN2A/GluN2B triheteromers. The oocytes were transferred in 96-well plates filled with Barth solution (in mM: 88 NaCl, 1 KCl, 0.33 Ca(NO3)2, 0.41 CaCl2, 0.82 MgSO4, 2.4 NaHCO3, and 7.5 HEPES, pH adjusted to 7.3 with NaOH), supplemented with gentamicin ([…]) and 50 μM APV, a selective NMDA receptor antagonist. Plates were then stored at 18 °C for 24 h for GluN1/GluN2A expression and for 48––72 h for the expression of GluN1/Glu2B, GluN1/GluN2A/GluN2B, and mutants.
TEVC recordings were performed 1–3 days following injection. TEVC recordings were performed using an Oocyte Clamp amplifier OC-725 (Warner Instruments) and computer-controlled via a 1440A Digidata (Molecular Devices). Currents were sampled at 100 Hz and low-pass-filtered at 20 Hz using an 8-pole Bessel filter (900 Series, Frequency Devices Inc.).

Assay [3] deals with cultured cortical neurons at DIV 14. Kind of assay: NMDA excitotoxicity test, neuronal survival by MTT. The class given is cell-based, mouse. The conditions noted are these: for neuronal survival: 5 µM inhibitor + 100 µM NMDA + 10 µM glycine; for % of survival, Mean: compound 5µM with NMDA 100µM, MTT A(540 nm) normalized to control (100) and NMDA alone (0). The source says:
We first investigated whether OptoNAM-3 could be used in the context of a patho-physiological process related to GluN1/GluN2B receptors. Overactivation of NMDARs induced by tonic exposure to glutamate or NMDA is well-known to trigger neuronal death.[6] GluN1/GluN2B receptors are thought to be the major player of this neurotoxicity, and GluN1/GluN2B antagonists have proven to be potent neuroprotectants in vitro and in vivo.[5],[15] To test the neuroprotective activity of OptoNAM-3 and its photodependence of action, we performed a protocol of excitotoxicity based on exposure to NMDA (100 μM) of cultured cortical neurons at DIV 14,[15] in the presence of OptoNAM-3. […] OptoNAM-3 in the dark, at a concentration of 5 μM, induced, like ifenprodil, an ∼50% increase in cell survival (Figure S4). […] OptoNAM-3 is therefore able to promote cell survival in neuron cultures in a photodependent manner.
Mice were housed in the IBENS rodent central facility duly accredited by the French Ministry of Agriculture. All experiments were performed in compliance with French and European regulations on care and protection of laboratory animals (EU Directive 2010/63, French Law 2013–118, February 6, 2013), and were approved by local ethics committees and by the French Ministry of Research and Innovation (authorization numbers #05137.02, APAFIS #28867-2020121814485893). Dissociated cultures of cortical neurons were prepared from mouse embryos at E18 as described previously.[84] After removing meninges, cortices were placed in ice-cold HBSS solution. Cell dissociation was performed individually for cortices of each embryo. Cortices were incubated in 2.5% trypsin at 37 °C for 7 min, rinsed three times with 37 °C phosphate buffer saline, and finally suspended in plating medium (Neurobasal Medium, supplemented with 0.5 mM L-glutamine, 1% B27 supplement, and penicillin/streptomycin). The neurons were further dissociated by trituration, and cells were plated on poly-D-lysine coated coverslips in 24-well culture dishes at a density of 3 × 10^5 cells per well for the excitotoxicity test and that of 1 × 10^5 cells per well for patch clamp experiments. Cultures were incubated at 37 °C in a humidified atmosphere of 5% CO2. Cells were fed by changing 1/2 medium to fresh Neurobasal medium every 4 days. For the excitotoxicity experiments, after 5 days in vitro, growth of non-neuronal cells was halted by a 24 h exposure to FDX ([…] 5-fluoro-2′-deoxyuridine). The cultures were used for experiments after 6 to 14 days in vitro (DIV6–8 for patch clamp experiments and DIV14 for excitotoxicity tests).
Excitotoxicity tests were performed 14 days after the culturing step as described in ref[15]. Just before the experiments, the neuronal medium was changed and the neurons incubated in the external patch recording solution (see above). Two replicates of 24 well plates containing cultured cortical neurons were exposed to the same 4 conditions, in which the following compounds were added to the medium: (1) glycine (10 μM) alone (control); (2) glycine (10 μM) + NMDA (100 μM); (3) glycine (10 μM) + NMDA (100 μM) + 5 μM ifenprodil; and (4) glycine (10 μM) + NMDA (100 μM) + 5 μM trans-OptoNAM-3 (dark). One of the two plates was exposed to UV light (Jena analytic US, UVP Hand-held UV lamp UVGL-58, power ∼1 mW) for 2 min. The two plates were then put back in the 37 °C incubator for 10 min. Agonist exposure was terminated by washing out the exposure solution with conditioned Neurobasal medium, prior to returning the dishes to the incubator for 24 h before assessment of neuronal death.
Overall neuronal cell death was determined 24 h after NMDA exposure by the MTT test. Mitochondrial and cytosolic dehydrogenases of living cells reduce the yellow tetrazolium salt (MTT) to produce a purple formazan dye that can be detected spectrophotometrically.[85] […]

Structures are written as SMILES. “Also recorded” adds a separate entry of the source. Read-outs that look alike come from different tables or passages of the source.

T1 sequence (Q01097 27-1482, other chains not shown): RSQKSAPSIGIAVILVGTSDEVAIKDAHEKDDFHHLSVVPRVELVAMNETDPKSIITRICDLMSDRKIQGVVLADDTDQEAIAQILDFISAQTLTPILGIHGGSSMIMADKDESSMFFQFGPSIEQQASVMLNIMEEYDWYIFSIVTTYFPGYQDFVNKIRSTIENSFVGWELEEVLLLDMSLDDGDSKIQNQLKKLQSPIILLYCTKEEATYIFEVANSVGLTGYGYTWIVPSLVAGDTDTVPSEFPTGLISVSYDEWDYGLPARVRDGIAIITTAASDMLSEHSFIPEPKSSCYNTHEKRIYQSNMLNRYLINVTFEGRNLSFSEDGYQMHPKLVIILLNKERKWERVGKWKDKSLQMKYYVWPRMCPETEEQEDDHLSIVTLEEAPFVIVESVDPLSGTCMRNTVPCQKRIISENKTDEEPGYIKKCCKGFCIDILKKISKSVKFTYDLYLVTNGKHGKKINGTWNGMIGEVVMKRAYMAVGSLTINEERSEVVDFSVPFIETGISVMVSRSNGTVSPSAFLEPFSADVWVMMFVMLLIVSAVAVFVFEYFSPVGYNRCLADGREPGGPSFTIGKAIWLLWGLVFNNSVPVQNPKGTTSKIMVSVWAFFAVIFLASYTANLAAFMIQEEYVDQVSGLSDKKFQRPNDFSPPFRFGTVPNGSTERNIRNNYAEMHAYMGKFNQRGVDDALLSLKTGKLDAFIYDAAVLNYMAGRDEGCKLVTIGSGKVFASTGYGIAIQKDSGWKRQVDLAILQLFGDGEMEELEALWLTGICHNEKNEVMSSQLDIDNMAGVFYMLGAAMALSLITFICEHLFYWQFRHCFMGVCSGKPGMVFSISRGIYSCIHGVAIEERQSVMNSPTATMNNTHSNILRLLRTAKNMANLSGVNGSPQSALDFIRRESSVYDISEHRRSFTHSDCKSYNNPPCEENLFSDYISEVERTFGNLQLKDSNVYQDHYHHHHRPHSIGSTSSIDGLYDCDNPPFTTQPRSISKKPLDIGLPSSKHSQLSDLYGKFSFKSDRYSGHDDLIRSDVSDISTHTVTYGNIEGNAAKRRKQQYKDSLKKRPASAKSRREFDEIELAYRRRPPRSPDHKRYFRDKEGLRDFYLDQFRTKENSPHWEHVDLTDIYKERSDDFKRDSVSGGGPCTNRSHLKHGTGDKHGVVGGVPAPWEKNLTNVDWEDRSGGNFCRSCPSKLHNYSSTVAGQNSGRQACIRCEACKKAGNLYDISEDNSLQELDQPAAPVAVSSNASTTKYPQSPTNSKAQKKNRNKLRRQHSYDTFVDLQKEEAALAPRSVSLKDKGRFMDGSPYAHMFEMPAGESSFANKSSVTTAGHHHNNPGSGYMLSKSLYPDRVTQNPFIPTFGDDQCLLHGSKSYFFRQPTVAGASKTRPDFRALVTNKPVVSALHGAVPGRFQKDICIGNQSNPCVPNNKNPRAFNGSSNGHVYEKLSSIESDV

Regarding `Nc1ccnc(N2CCc3ccccc3C2)c1` [9n = Compound 1], the Ki or IC50 in assay [1] (ref: ref. 39) was 3 nM. For the compound `c1ccc(/N=N\c2ccc(CCNc3ccncc3)cc2)cc1` [cis-OptoNAM-3], in assay [2], the “activity of the cis isomer on GluN1/GluN2B NMDARs” value was “inactive”. For `CC(C(O)c1ccc(O)cc1)N1CCC(Cc2ccccc2)CC1` (stereo not drawn) [ifenprodil], the neuronal survival entry in assay [3] (2 min UV (365 nm), normalized to control and NMDA) was “not affected; also recorded: No photodependent effect”; in assay [3] (dark, normalized to control (100%) and NMDA (0%)), 60%. The “% of survival, Mean” value was 59.345% in assay [3] (Dark) and 59.393% in assay [3] (UV).

Broadly, the Ki is a measure of affinity in units of concentration, obtained from inhibition or displacement. In the case of `Nc1ccnc(N2CCc3ccccc3C2)c1` [parent compound 1], in assay [1] (ref 3 (SI), read-out: Parent compound Ki), the Ki was 3 nM. The term IC50 denotes the midpoint of a concentration-inhibition curve. Turning to `Cc1cc(N)nc(/C=C/c2ccccc2)c1` [parent compound 2], in assay [1] (ref: ref. 40), the Ki or IC50 was 10 nM. The IC50 in assay [1] (ref 2,6 (SI), read-out: Parent compound IC50) was 10 nM.

The values above are taken from publication PMC11413854, “Reversible Control of Native GluN2B-Containing NMDA Receptors with Visible Light” (ACS Chemical Neuroscience, 2024).
